The text below walks through data of patent US7495104B2, “Quinoline or quinazoline derivatives inhibiting auto-phosphorylation of fibroblast growth factor receptors” (Kirin Beer Kabushiki Kaisha, priority 2001, dated 2009).

Counter-ions that a name gives are not always drawn.

The target in this assay is Bek (Homo sapiens, UniProt P21802). Kind of assay: Inhibitory activity against Bek-autophosphorylation using ELISA method in OCUM-2MD3 cells. The assay is classed as cell-based. As to conditions: 1 hr with compound, read-out: IC50 (concentration necessary for inhibiting 50% of Bek-phosphorylation). How it is done: Human scirrhus stomach cancer cells OCUM-2MD3 (kindly provided by Dr. Kosei Hirakawa, Osaka City University) were cultured in an RPMI medium containing 10% fetal calf serum (purchased from ICN) within a 5% carbon dioxide incubator until 50 to 90% confluent. The harvested cells were seeded onto 96-well flat-bottom plate in RPMI containing 0.1% fetal calf serum at 3.5×10^4 cells per well, followed by cultivation at 37° C. overnight. A solution of the test compound in dimethyl sulfoxide was added to each well, and the cultivation was continued at 37° C. for additional one hr. The medium was removed, and 50 μl of lysis buffer (20 mM HEPES (pH 7.4), 150 mM NaCl, 0.2% Triton X-100, 10% glycerol, 5 mM sodium orthovanadylate, 5 mM disodium ethylenediaminetetraacetate, and 2 mM Na4P2O7) was then added thereto. The mixture was shaken at 4° C. for 2 hr to prepare cell extracts.
Chain of Bek (P21802 431-767 limits assumed): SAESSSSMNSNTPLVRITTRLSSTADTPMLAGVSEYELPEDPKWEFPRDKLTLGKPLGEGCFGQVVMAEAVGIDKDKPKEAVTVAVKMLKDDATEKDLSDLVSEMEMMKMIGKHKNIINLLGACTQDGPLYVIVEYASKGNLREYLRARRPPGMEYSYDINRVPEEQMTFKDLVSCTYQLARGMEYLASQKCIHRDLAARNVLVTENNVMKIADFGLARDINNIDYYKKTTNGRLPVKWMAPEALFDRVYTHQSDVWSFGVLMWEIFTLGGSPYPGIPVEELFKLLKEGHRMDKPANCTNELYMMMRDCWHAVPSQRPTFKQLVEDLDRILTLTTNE
Separately, phosphate buffered saline (50 μl, pH 7.4) containing 5 μg/ml of anti-phospho-tyrosine antibody (PY20; purchased from Transduction Laboratories) was added to a microplate for ELISA (Maxisorp; purchased from NUNC), followed by standing at 4° C. overnight to form a solid phase on the wells. After washing of the plate, 300 μl of a blocking solution was added, followed by standing at room temperature for 2 hr to perform blocking. After washing, the whole quantity of the cell extracts was transferred to the wells, and the plate was then allowed to stand at 4° C. overnight. After washing, an anti-Bek antibody (Bek (C-17), purchased from Santa Cruz Biotechnology) or Anti-Human K-sam Rabbit IgG Affinity Purity (purchased from IBL Co., Ltd.) was allowed to react at room temperature for one hr, and, after washing, a peroxidase-labeled anti-rabbit Ig antibody (purchased from Amersham) was allowed to react at room temperature for one hr. After washing, a chromophoric substrate for peroxidase (purchased from Sumitomo Bakelite Co., Ltd.) was added thereto to initiate a reaction. After a suitable level of color development, a reaction termination solution was added to stop the reaction, and the absorbance at 450 nm was measured with a microplate reader. The Bek-phosphorylation activity for each well was determined by presuming the absorbance without the addition of the medicament to be 100% Bek-phosphorylation activity and the absorbance with the addition of a large excess of a positive control (N-{4-[(6,7-dimethoxy-4-quinolyl)oxy]phenyl}-N′-(3,3-dimethylbutyl)urea, 1000 nM) to be 0% Bek-phosphorylation activity. The concentration of the test compound was varied on several levels, the Bek-phosphorylation inhibitory activity was determined for each case, and the concentration of the test compound necessary for inhibiting 50% of Bek-phosphorylation (IC50) was calculated.
(ELISA stands for enzyme-linked immunosorbent assay.)
On to `COc1cc2nccc(Oc3ccc(Nc4ccc(C(C)(C)C)cc4)cc3)c2cc1OC` [Compound 5, (4-Tert-butylphenyl)-[4-(6,7-dimethoxyquinolin-4-yloxy)phenyl]amine], for which the IC50 turned out to be 321 nM. In the case of `COc1cc2c(Oc3ccc(NC(=O)NCCC(C)(C)C)c(Cl)c3)ccnc2cc1OCCCN1CCN(C)CC1` [Compound 187, 1-(2-Chloro-4-{6-methoxy-7-[3-(4-methyl-piperazin-1-yl)-propoxy]-quinolin-4-yloxy}-phenyl)-3-(3,3-dimethyl-butyl)-urea] it was 22.3 nM.

With `COc1cc2nccc(Oc3ccc(Nc4ccc(C(C)(C)C)cc4)c(F)c3)c2cc1OC` [Compound 19, (4-Tert-butylphenyl)-[4-(6,7-dimethoxyquinolin-4-yloxy)-2-fluorophenyl]amine], the IC50 stood at 195 nM.

Turning to `COc1cc2c(Oc3ccc(Nc4ccc(C(C)(C)C)cc4)cc3)ccnc2cc1OCCC(C)N1CCOCC1` (stereo not shown) [Compound 80, (4-Tert-butylphenyl)-{4-[6-methoxy-7-(3-morpholin-4-ylbutoxy)-quinolin-4-yloxy]phenyl}amine], the IC50 stood at 151 nM. In the case of `COc1cc2nccc(Oc3ccc(NC(=O)NCCC(C)(C)C)cc3)c2cc1OCCCN1CCC(CCO)CC1` [Compound 324, 1-(3,3-Dimethyl-butyl)-3-[4-(6-{3-[4-(2-hydroxy-ethyl)-piperidin-1-yl]-propoxy}-7-methoxy-quinolin-4-yloxy)-phenyl]-urea] it was 287 nM; in that of `COc1cc2c(Oc3ccc(NC(=O)NCCC(C)(C)C)cc3)ccnc2cc1OCC(O)CN1CC(C)OC(C)C1` (stereo not shown) [Compound 250, 1-(3,3-Dimethyl-butyl)-3-(4-{7-[3-(2,6-dimethyl-morpholin-4-yl)-2-hydroxy-propoxy]-6-methoxy-quinolin-4-yloxy}-phenyl)-urea], under 10 nM; in that of `COc1cc(Oc2ccnc3cc(OC)c(OC)cc23)ccc1Nc1ccc(C(C)(C)C)cc1` [Compound 14, (4-Tert-butylphenyl)-[4-(6,7-dimethoxyquinolin-4-yloxy)-2-methoxyphenyl]amine], 1920 nM. In the case of `COc1cc2ncnc(Oc3ccc(Nc4ccc(C(C)(C)C)cc4)cc3)c2cc1OC` [Compound 74, (4-Tert-butylphenyl)-[4-(6,7-dimethoxyquinazolin-4-yloxy)-phenyl]amine] it was 521 nM; in that of `COc1cc2nccc(Oc3ccc(Nc4ccc(OC(F)(F)F)cc4)cc3)c2cc1OC` [Compound 6, [4-(6,7-Dimethoxyquinolin-4-yloxy)phenyl]-(4-trifluoromethoxy-phenyl)amine], 875 nM; in that of `COc1cc2c(Oc3ccc(Nc4ccc(C(C)(C)C)cc4)c(F)c3)ccnc2cc1OCCN(CCO)CCO` [Compound 335, 2-[(2-{4-[4-(4-Tert-butyl-phenylamino)-3-fluoro-phenoxy]-6-methoxy-quinolin-7-yloxy}-ethyl)-(2-hydroxy-ethyl)-amino]-ethanol], 95.3 nM.

With `COc1cc2c(Oc3ccc(NC(=O)NCCC(C)(C)C)c(Cl)c3)ccnc2cc1OCC(O)CN1CCCC1` (stereo not shown) [Compound 192, 1-{2-Chloro-4-[7-(2-hydroxy-3-pyrrolidin-1-yl-propoxy)-6-methoxy-quinolin-4-yloxy]-phenyl}-3-(3,3-dimethyl-butyl)-urea], the IC50 was determined as 9.1 nM. In the case of `COc1cc2c(Oc3ccc(NC(=O)NCCC(C)(C)C)c(Cl)c3)ccnc2cc1OCCCl` [Compound 160, 1-{2-Chloro-4-[7-(2-chloro-ethoxy)-6-methoxy-quinolin-4-yloxy]-phenyl}-3-(3,3-dimethyl-butyl)-urea] it was 23.5 nM; in that of `COc1cc2c(Oc3ccc(NC(=O)NCCC(C)(C)C)c(Cl)c3)ccnc2cc1OCC(O)CN1CCCCCC1` (stereo not shown) [Compound 194, 1-{4-[7-(3-Azepan-1-yl-2-hydroxy-propoxy)-6-methoxy-quinolin-4-yloxy]-2-chloro-phenyl}-3-(3,3-dimethyl-butyl)-urea], 19.7 nM; in that of `COc1cc2nccc(Oc3ccc(NC4CCC(C(C)(C)C)CC4)cc3)c2cc1OC` (stereo not shown) [Compound 77, (4-Tert-butylcyclohexyl)-[4-(6,7-dimethoxyquinolin-4-yloxy)phenyl]amine], 3450 nM. Then `COc1cc2c(Oc3ccc(Nc4ccc(C(C)(C)C)cc4)cc3)ccnc2cc1OCCCN1CCC(O)CC1` [Compound 216, 1-(3-{4-[4-(4-Tert-butyl-phenylamino)-phenoxy]-6-methoxy-quinolin-7-yloxy}-propyl)-piperidin-4-ol], with 174 nM; and `COc1cc2c(Oc3ccc(Nc4ccc(C(C)(C)C)cc4)cc3)ccnc2cc1OCCCCl` [Compound 23, (4-Tert-butylphenyl)-{4-[7-(3-chloropropoxy)-6-methoxyquinolin-4-yloxy]phenyl}amine], with 762 nM. As for `COc1cc2c(Oc3ccc(NC(=O)NCCC(C)(C)C)cc3)ccnc2cc1OCCCCN1CCOCC1` [Compound 158, 1-(3,3-Dimethyl-butyl)-3-{4-[6-methoxy-7-(4-morpholin-4-yl-butoxy)-quinolin-4-yloxy]-phenyl}-urea hydrochloride], the IC50 was determined as 32.1 nM.

`COc1cc2c(Oc3ccc(NC(=O)NCCC(C)(C)C)c(F)c3)ccnc2cc1OCCN1CCC(O)CC1` [Compound 299, 1-(3,3-Dimethyl-butyl)-3-(2-fluoro-4-{7-[2-(4-hydroxy-piperidin-1-yl)-ethoxy]-6-methoxy-quinolin-4-yloxy}-phenyl)-urea]: the IC50 amounted to 27.4 nM. In the case of `COc1cc2c(Oc3ccc(Nc4ccc(C(C)(C)C)cc4)cc3)ccnc2cc1OCC(O)CN1CCCCC1` (stereo not shown) [Compound 62, 1-{4-[4-(4-Tert-butyl-phenylamino)phenoxy]-6-methoxyquinolin-7-yloxy}-3-piperidin-1-ylpropan-2-ol], the IC50 amounted to 249 nM. As for `COc1cc2c(Oc3ccc(NC(=O)NCCC(C)(C)C)c(Cl)c3)ccnc2cc1OCCCN1CCOCC1` [Compound 205, 1-{2-Chloro-4-[6-methoxy-7-(3-morpholin-4-yl-propoxy)-quinolin-4-yloxy]-phenyl}-3-(3,3-dimethyl-butyl)-urea], the IC50 came to 25.5 nM. Then `COc1cc2c(Oc3ccc(Nc4ccc(C(C)(C)C)cc4)cc3)ccnc2cc1OCCN(CCO)C1CCCCC1` [Compound 364, 2-[(2-{4-[4-(4-Tert-butyl-phenylamino)-phenoxy]-6-methoxy-quinolin-7-yloxy}-ethyl)-cyclohexyl-amino]-ethanol], with 230 nM; and `COCCNCCCOc1cc2nccc(Oc3ccc(NC(=O)NCCC(C)(C)C)cc3)c2cc1OC` [Compound 271, 1-(3,3-Dimethyl-butyl)-3-(4-{6-methoxy-7-[3-(2-methoxy-ethylamino)-propoxy]-quinolin-4-yloxy}-phenyl)-urea], with 33.2 nM; and `COc1cc2nccc(Oc3ccc(Nc4ccc(C(C)(C)C)cc4)cc3)c2cc1OCCN(CCO)CCO` [Compound 358, 2-[(2-{4-[4-(4-Tert-butyl-phenylamino)-phenoxy]-7-methoxy-quinolin-6-yloxy}-ethyl)-(2-hydroxy-ethyl)-amino]-ethanol], with 51.7 nM. On to `COc1cc2nccc(Oc3ccc(Nc4ccc(C(C)(C)C)cc4)cc3F)c2cc1OC` [Compound 18, (4-Tert-butylphenyl)-[4-(6,7-dimethoxyquinolin-4-yloxy)-3-fluorophenyl]amine], for which the IC50 was 155 nM. Then `COc1cc2c(Oc3ccc(NC(=O)NCCC(C)(C)C)cc3)ccnc2cc1OCCN1CCC(N2CCCC2)CC1` [Compound 124, 1-(3,3-Dimethyl-butyl)-3-(4-{6-methoxy-7-[2-(4-pyrrolidin-1-yl-piperidin-1-yl)-ethoxy]-quinolin-4-yloxy}-phenyl)-urea], with under 10 nM. With `COc1cc2c(Oc3ccc(NC(=O)NCCC(C)(C)C)cc3)ccnc2cc1OCC(=O)O` [Compound 221, (4-{4-[3-(3,3-Dimethyl-butyl)-ureido]-phenoxy}-6-methoxy-quinolin-7-yloxy)-acetic acid], the IC50 came to 762 nM. In the case of `COc1cc2c(Oc3ccc(Nc4ccc(C(C)(C)C)cc4)c(F)c3)ccnc2cc1OCCCN1CCC(O)CC1` [Compound 289, 1-(3-{4-[4-(4-Tert-butyl-phenylamino)-3-fluoro-phenoxy]-6-methoxy-quinolin-7-yloxy}-propyl)-piperidin-4-ol] it was 248 nM; in that of `CCN(CCO)CCOc1cc2nccc(Oc3ccc(NC(=O)NCCC(C)(C)C)c(F)c3)c2cc1OC` [Compound 341, 1-(3,3-Dimethyl-butyl)-3-[4-(7-{2-[ethyl-(2-hydroxy-ethyl)-amino]-ethoxy}-6-methoxy-quinolin-4-yloxy)-2-fluoro-phenyl]-urea], 28.9 nM.
